In article PMC2869451 (Journal of medicinal chemistry, 2009) one finds Ki data, which are given here for one compound.

The assay deals with S-adenosylmethionine synthetase (MAT, cMAT) (Escherichia coli, UniProt P0A817). In words: […]-methionine incorporation into AdoMet with purified enzyme. The class given is biochemical.
S-adenosylmethionine synthetase (MAT, cMAT), sequence (P0A817 2-384): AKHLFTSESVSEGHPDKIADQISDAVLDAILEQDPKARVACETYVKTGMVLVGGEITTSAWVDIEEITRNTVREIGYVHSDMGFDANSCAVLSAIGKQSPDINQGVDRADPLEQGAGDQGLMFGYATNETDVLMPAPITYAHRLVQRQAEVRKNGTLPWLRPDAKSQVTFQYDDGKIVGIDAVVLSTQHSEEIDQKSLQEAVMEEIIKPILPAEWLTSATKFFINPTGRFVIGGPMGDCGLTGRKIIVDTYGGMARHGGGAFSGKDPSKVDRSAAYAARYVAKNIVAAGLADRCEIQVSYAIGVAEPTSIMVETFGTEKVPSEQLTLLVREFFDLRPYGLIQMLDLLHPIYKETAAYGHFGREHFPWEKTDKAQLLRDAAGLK

In turn, `CCOc1ccccc1NC(=O)NCC(=O)NNC(=O)Nc1cc([N+](=O)[O-])ccc1C` [compound 1, 1-(3-(2-ethoxyphenyl)ureidoacetyl)-4-(2-methyl-5-nitrophenyl)semicarbazide] returned a Ki of 1.9 ± 0.8 nM.

In general, Ki refers to the dissociation constant of the complex between target and ligand, obtained from inhibition or displacement. Low readings indicate a stronger hold on the target, high ones a looser hold on the target.
